Values of other authors as cited in patent US8309122B2 (Endo Pharmaceuticals Inc., priority 2001, dated 2012).

Settings: metabolized principally in the liver

Structure (SMILES): CN1CC[C@]23c4c5ccc(O)c4O[C@H]2C(=O)CC[C@@]3(O)[C@H]1C5.Cl [Oxymorphone, 14-hydroxydihydromorphinone hydrochloride]
- oral bioavailability: about 10%
